Columns and labels:
[1] = system: RL2 antibody binding to p135; assay: Blocking of RL2 antibody immunoprecipitation of p135 by added sugars; design: species or system mouse; settings: 0.3 M added during the RL2 immunoprecipitation step (FIG. 3)
Description: Islets (100/condition) were incubated for 60 min with either 3 mM glucose (G3) or 28 mM glucose following pre-incubation with 5 mM streptozotocin (STZ). At the end of the incubation period, O-glycosylated proteins were immunoprecipitated with RL2 antibody in the presence of 0.3 M N-acetylglucosamine (GlcNAc), 0.3 M N-acetylgalactosamine (GalNAc), or 0.3 M glucosamine (GlcN) and analyzed by Western blotting as described in FIG. 1.
At the end of the experiment, all supernatant was removed from the tubes or dishes. One ml of ice-cold lysis buffer (50 mM HEPES, pH 7.40, 150 mM NaCl, 1% Triton X-100, 5 mM EDTA, 5 mM EGTA, 20 mM NaF, 20 mM Na4P2O7, 1 mM NaVO4, 1 mg/ml bacitracin, 1 mM phenylmethylsulfonylfluoride, 1 μg/ml leupeptin, 1 μg/ml aprotinin) was added to each tube or dish. Cells were scraped on ice into 1.5 ml conical screw cap Eppendorf tubes. Borosilicate tubes containing islets were vortexed for 30 sec and placed on ice for 30 min. Islet samples were vortexed for an additional minute before transfer to 1.5-ml conical screw cap Eppendorf tubes. All subsequent immunoprecipitation steps were performed at 4° C. Samples were centrifuged at 10,000×g for 15 min. […]

[2] = system: p135 (135 kD O-glycosylated protein) in isolated islets; assay: p135 O-glycosylation in isolated islets (RL2 immunoprecipitation and Western blotting); type: cell-based, rat; settings: for increase in p135 O-glycosylation: 5 mM, 60 min, islets isolated in 11 mM glucose and 1 mM L-glutamine; for effect on glucose-induced p135 O-glycosylation: 100 μM DON with 28 mM glucose
Description: (§1) In a typical experiment, islets were isolated aseptically from 3-4 male Sprague-Dawley rats. During surgery, the common bile duct of each pancreas was cannulated, and the pancreas was inflated with 20 ml of Hank's Balanced Salt Solution (HBSS). The distended pancreas was excised, and lymph nodes, fat, blood vessels, and bile ducts were removed under a stereo dissecting microscope. Tissue was chopped extensively and rinsed 5-6 times with HBSS. The tissue was digested with collagenase P (3 mg/ml tissue) at 37° C. for 3-4 min using a wrist action shaker. Digested tissue was rinsed 3-4 times with HBSS, and islets were purified on a discontinuous Ficoll gradient consisting of 27%, 23%, 20.5%, and 11% Ficoll in (25 mM) HEPES-HBSS buffer. Islets were harvested from the gradient and washed once with HBSS. Islets were washed 6 times in DMEM supplemented with 25 mM HEPES pH 7.40, 25 mM NaHCO3, 0.1% bovine serum albumin, 3 mM glucose, and 1 mM L-glutamine (complete DMEM). This isolation procedure typically provided 300-400 islets per rat, which were then used as described below. In selected experiments, islets were isolated as described above, except that all isolation buffers were supplemented t o contain 11 mM glucose and 1 mM L-glutamine.
(§2) Freshly isolated islets were placed into siliconized 16×100-mm round bottom, screw-cap tubes and pre-incubated for 30 min in 1 ml of complete DMEM. For each experiment, 100 islets were placed into each tube. Pre-incubation and all subsequent incubations were performed at 37° C. under an atmosphere of 95% O2/5% CO2. After 30 min, pre-incubation buffer was aspirated, and islets were incubated with complete DMEM supplemented with the appropriate secretagogue. At the end of the incubation period, the entire supernatant was removed for insulin radioimmunoassay. Islets were processed for subsequent immunoprecipitation as described below. For each experiment, insulin secretion in the control sample was set at 100% and all other results were expressed as percentages of control.
At the end of the experiment, all supernatant was removed from the tubes or dishes. One ml of ice-cold lysis buffer (50 mM HEPES, pH 7.40, 150 mM NaCl, 1% Triton X-100, 5 mM EDTA, 5 mM EGTA, 20 mM NaF, 20 mM Na4P2O7, 1 mM NaVO4, 1 mg/ml bacitracin, 1 mM phenylmethylsulfonylfluoride, 1 μg/ml leupeptin, 1 μg/ml aprotinin) was added to each tube or dish. Cells were scraped on ice into 1.5 ml conical screw cap Eppendorf tubes. Borosilicate tubes containing islets were vortexed for 30 sec and placed on ice for 30 min. Islet samples were vortexed for an additional minute before transfer to 1.5-ml conical screw cap Eppendorf tubes. All subsequent immunoprecipitation steps were performed at 4° C. Samples were centrifuged at 10,000×g for 15 min. The supernatant was transferred to a second 1.5-ml conical Eppendorf tube, and O-glycosylated proteins were immunoprecipitated for 2 h on a rocker with 2 μl of mouse monoclonal RL2 antibody, which selectively binds to O-glycosylated protein (21,22). After 2 h, 20 μl of protein A trisacryl beads (Pierce) preadsorbed with 20 μg of rabbit anti-mouse antibody (Sigma) were added to the tubes and the incubation was continued for an additional 2 hours. At the end of the incubation, beads were washed once with Wash Buffer 1 (150 mM NaCl, 10 mM HEPES, pH 7.40, 1% Triton X-100, and 0.1% SDS) and once with Wash Buffer 2 (10 mM HEPES, pH 7.40, 1% Triton X-100, and 0.1% SDS). After the final washing step, 25 μl of 2× sample buffer (100 mM Tris, pH 6.80, 4% SDS, 20% glycerol, and 20 μg/liter bromophenol blue) was added to each tube. Samples were vortexed for 30 sec, boiled for 5 min, and stored at −20° C. prior to subsequent analysis.
Samples were loaded onto 7.5% SDS-polyacrylamide gels. Colored molecular weight markers (Amersham) were run on each gel. Proteins were separated for 1 h at 175 V at room temperature using a Bio-Rad Mini-PROTEAN II dual slab cell. […]

isolated islets = assay: Insulin secretion from isolated islets (radioimmunoassay); type: cell-based, rat; settings: for Insulin (secretion in isolated islets): islets isolated in 11 mM glucose and 1 mM L-glutamine
Description: as §1, §2
Films were photographed using a Sony digital camera, and intensities of bands present on films were quantitated using the program NIH Image. All results are expressed as the mean±SEM, using the Windows-compatible version 2.98 of the program FigP (Biosoft, St. Louis, Mo.). Statistical analysis was performed using the same program. Data were analyzed by one-way analysis of variance followed by multiple comparisons between the means using the least significant difference test. A probability of p<0.05 was considered to indicate statistical significance.

β-TC3 cells = assay: Protein O-glycosylation in β-TC3 cells (RL2 immunoprecipitation and Western blotting); type: cell-based; settings: 5 mM, 60 min after 30 min in 0 mM glucose (FIG. 8)
Description: β-TC3 cells (passage 37) were obtained form the University of Pennsylvania Diabetes Center from Dr. D. Hanahan (University of California, San Francisco). β-TC3 cells were cultured in 10-cm dishes in the presence of RPMI 1640 medium supplemented with 10% fetal bovine serum, penicillin (75 μg/ml), streptomycin (50 μg/ml), and 2 mM L-glutamine. Cells were trypsinized and subcloned weekly. Media were changed twice weekly and on the day prior to an experiment, and insulin responsiveness to glucose and carbachol was routinely monitored. Cells were used between passages 38 and 55.
β-TC3 cells in 10-cm dishes were washed three times in Krebs'-HEPES buffer (25 mM HEPES, pH 7.40, 115 mM NaCl, 24 mM NaHCO3, 5 mM KCl, 2.5 mM CaCl2, 1 mM MgCl2) supplemented with 0.1% bovine serum albumin and 1 mM L-glutamine. Cells were pre-incubated in 5 ml of the same buffer for 30 min at 37° C. under an atmosphere of 95% air/5% CO2. After 30 min, the pre-incubation buffer was aspirated and cells were incubated at 37° C. under an atmosphere of 95% air/5% CO2 with 5 ml of Krebs'-HEPES buffer supplemented with the appropriate secretagogue. At the end of the incubation period, supernatant was removed for insulin radioimmunoassay. Cells left in the dishes were processed for subsequent immunoprecipitation as described below.
At the end of the experiment, all supernatant was removed from the tubes or dishes. […]

β-cells = settings: 50-100 mg/kg administered to a rat; development of diabetes; cited from earlier work

With `CC(=O)N[C@H]1C(O)O[C@H](CO)[C@@H](O)[C@@H]1O` (stereo partly drawn) [GlcNAc, N-acetylglucosamine] the “inhibition of RL2 immunoprecipitation of p135” value [1] was “completely inhibited”.

For `CN(N=O)C(=O)N[C@H]1C(O)O[C@H](CO)[C@@H](O)[C@@H]1O` (mixture of isomers) [streptozotocin], the “reversibility of p135 O-glycosylation” value ([2]; 5 mM pre-incubation 30 min, then 3 or 28 mM glucose 30 min, then 3 mM glucose 30 min (FIG. 5)) was “not readily reversible”, the “stimulation of p135 O-glycosylation in the presence of DON” value ([2]; 5 mM with 100 μM DON, 60 min (FIG. 4)) was “able to increase p135 O-glycosylation” and the “increase in p135 O-glycosylation” value ([2]; compared to 3 mM glucose control (FIG. 7 experiment)) was 361.3±78.8%. For the same compound, the “increase in p135 O-glycosylation” value ([2]; versus 3 mM glucose control (FIG. 2)) was 333.9±66.8%, the “stimulation of p135 O-glycosylation” value ([2]; islets isolated in low glucose and no added L-glutamine, concentration not given) was “no consistent increase in p135 O-glycosylation” and the “Insulin (secretion in isolated islets)” value (isolated islets; 5 mM, DON 0, 60 min, control 3 mM glucose = 100) was 147.1 ± 16.8%. The “Insulin (secretion in isolated islets)” value (isolated islets; 5 mM, DON 100 (μM), 60 min, control 3 mM glucose = 100) was 115.6 ± 7.8%, the “O-glycosylation response of β-TC3 cells” value (β-TC3 cells) was “fail to undergo increased O-glycosylation” and the “time to death of most of the β-cells” value (β-cells) was at most 8 h.

For `CC(=O)N[C@H]1C(O)O[C@H](CO)[C@H](O)[C@@H]1O` (stereo partly drawn) [GalNAc, N-acetylgalactosamine], the “inhibition of RL2 immunoprecipitation of p135” value [1] was “neither GalNAc nor glucosamine added at the same concentration as GlcNAc prevented”.

With `[N-]=[N+]=CC(=O)CC[C@H](N)C(=O)O` [DON, 6-diazo-5-oxonorleucine] the “effect on glucose-induced p135 O-glycosylation” value ([2]; 60 min (FIG. 4)) was “inhibited”, the “effect on glucose-induced p135 O-glycosylation” value ([2]; 60 min (FIG. 4), listed as 5-diazo-oxo-norleucine) was “completely blocked” and the “effect on glucose-induced insulin secretion” value (isolated islets; 100 μM DON with 28 mM glucose, 60 min) was “no significant effect”. The “Insulin (secretion in isolated islets)” value (isolated islets; DON 100 (μM) in 3 mM glucose, 60 min, control 3 mM glucose without DON = 100) was 160.6 ± 50.5%.
